PubChem BioAssay AID602211 (Sanford-Burnham Center for Chemical Genomics, 2012)
Calls of active or inactive are those of the source.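 The calls were made as follows: active = mean IC50 at or below 10 µM; inactive = the rest.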

Tested on: H9c2 cardiomyocytes, H2O2 protection, ATPLite viability, 2 h
Assay: protection of H9c2 cardiomyocytes from H2O2 death, dose response, cell-based, ATPLite luminescence, set 2 (AID 602211);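 also: potency is for protection so actives keep ATP signal up against peroxide killing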

SMILES | IC50
CCOC(=O)c1ccc(-c2ccc(/C=C(\C#N)C(=O)NCC3CCCO3)o2)cc1 (stereo unspecified) | > 79 µM (inactive)
CC(=O)NCCNc1nc2c(-c3ccccc3)nnn2c2ccccc12 | 2.56 µM
COc1ccc(CCCNC(=O)C2(C)Cc3c(-c4ccc(NC(C)=O)cc4)ccnc3O2)cc1 (stereo unspecified) | > 79 µM (inactive)
COc1ccc2occ(C(=O)c3coc4ccc(O)c(CN(C)C)c34)c2c1 | 4.32 µM
CC(C(=O)NC1CCCC1)N(C(=O)Cn1nnc(-c2ccc(F)cc2)n1)c1ccccc1F (stereo unspecified) | 1.68 µM
COc1cc(C(=O)Nc2nc(-c3cccs3)cs2)cc(OC)c1OC | 1.78 µM
CC1(C)CC(=O)C2=C(C1)N(CCN1CCOCC1)C1=C(C(=O)CC(C)(C)C1)C2c1ccc(Cl)cc1 | 9.75 µM
COc1ccc(COc2cc(-c3cccc(OC)c3)nc3ccc(NC(=O)c4cccnc4)cc23)cc1 | 2.36 µM
O=C(NCCN1CCN(c2ccccc2F)CC1)c1cccn2c(=O)c3ccccc3nc12 | 7.34 µM
C[C@@H]1CN([C@@H](C)CO)C(=O)c2cc(NC(=O)Nc3ccccc3)ccc2O[C@H]1CN(C)C(=O)Nc1cccc2ccccc12 | 8.2 µM
COc1ccc(C(C(=O)NCc2ccccc2)N(Cc2ccco2)C(=O)c2snc(C(N)=O)c2N)cc1 (stereo unspecified) | 3.63 µM
COc1cc(NC(=O)c2cc3c(C)nc4ccccc4c3o2)cc(OC)c1OC | 3.36 µM
COc1ccc(-c2cc(C(F)(F)F)n3nc(C(=O)N4CCN(C(=O)c5ccco5)CC4)cc3n2)cc1 | 9.56 µM
Nc1cc2[nH]c(=O)c3ccccc3c2cc1[N+](=O)[O-] | 5.96 µM
COCCn1ccc2c(OCC(=O)Nc3ccccc3OC)cccc2c1=O | > 79 µM (inactive)
COc1ccc(CC(=O)N(Cc2ccccc2)c2ccccc2)cc1S(=O)(=O)N1CCOCC1 | 2.24 µM
CCC(=O)Nc1cccc(-c2nnc(-c3cccc(NC(=O)CC)c3)o2)c1 | 4.1 µM
COc1cc(-c2nnc(-c3cc(-c4ccccc4)nc4ccccc34)o2)cc(OC)c1OC | 4.14 µM
COc1cc(NC(=O)c2cc3ccccc3cc2OC)ccc1NC(=O)c1cccs1 | 3.59 µM
Cc1ccc(CN(C(=O)CNC(=O)c2cccs2)C(C(=O)NCC2CCCO2)c2ccccc2)cc1 (stereo unspecified) | 14.9 µM (inactive)
Cc1ccccc1N(C(=O)c1snc(C(N)=O)c1N)C(C(=O)NCc1ccccc1)c1ccc(O)cc1 (stereo unspecified) | 6.3 µM
CC(C)(C)OC(=O)C[C@@H]1C/C=C\C[C@@H](CC(=O)N[C@@H](CO)Cc2ccccc2)C(=O)NC[C@@H](c2ccccc2)OC1=O | 12.9 µM (inactive)
COc1ccc(-c2cc(NC(C)=O)c3ncc(-c4cccc(C(C)=O)c4)n3c2)cc1OC | 7.18 µM

SMILES | IC50
COc1ccccc1NC(=O)c1cc(-c2ccc(OC)c(OC)c2)nc2ccccc12 | 4.06 µM
O=C(c1cc(=O)[nH]c2ccccc12)N1CCN(S(=O)(=O)c2ccc3ccccc3c2)CC1 | 2.89 µM
C#CCOc1nc(Nc2cccc([N+](=O)[O-])c2)nc(OCC#C)n1 | > 79 µM (inactive)
COCc1c(C(=O)Nc2ccc3nc(N4CCOCC4)sc3c2)oc2ccccc12 | > 79 µM (inactive)
O=C(CSc1ccc2nnc(-c3ccc(F)cc3)n2n1)N1CCCc2ccccc21 | 1.21 µM
CC(C)(C)NC(=O)COC(=O)c1c2c(nc3ccccc13)CCC2 | 14.6 µM (inactive)
CC(=O)N1CCN(c2ccccc2NC(=O)c2ccc(-c3cccc([N+](=O)[O-])c3)o2)CC1 | 23.7 µM (inactive)
Cc1ccc(Cn2c(CCNc3nc(-c4ccc(Cl)c([N+](=O)[O-])c4)cs3)nc3cc(C(=O)NCCCO)ccc32)cc1 | 1.48 µM
CC(=O)c1ccc(-c2cnc3c(NC=O)cc(-c4ccc(C(=O)NC5CC5)cc4)cn23)cc1 | 3.38 µM
COc1ccc(-n2nc(C(=O)NCC(=O)Nc3cc(OC)c(OC)c(OC)c3)c3ccccc3c2=O)cc1Cl | 3.02 µM
Cc1cc(C)c(S(=O)(=O)N2CCN(C(=O)c3cc(=O)[nH]c4ccccc34)CC2)c(C)c1 | 2.94 µM
COc1ccc(-c2cc3nc(C)cc(N4CCN(C(=O)c5ccoc5)CC4)n3n2)cc1 | 69.1 µM (inactive)
COc1ccc(C(=O)COC(=O)Cn2[nH]c(=O)c3ccccc3c2=O)c(OC)c1 | 27.2 µM (inactive)
COc1cccc(/C=N/NC(=O)c2oc3nc(-c4ccccc4)cc(-c4ccco4)c3c2N)c1 | 5.87 µM
CC(=O)c1ccc(-c2ccc(C(=O)Nc3nc(-c4ccccn4)cs3)o2)cc1 | 1.57 µM
N#C/C(=C\c1ccc(-c2cccc([N+](=O)[O-])c2)o1)C(=O)NCCN1CCOCC1 | > 79 µM (inactive)
NC(=O)c1nsc(C(=O)N(c2ccccc2F)C(C(=O)NCc2ccc(F)cc2)c2ccc(O)cc2)c1N (stereo unspecified) | 0.94 µM
COc1ccc(CNn2c(-c3cccs3)nc3ccccc3c2=O)cc1OC | 7.18 µM
OC1CCN(c2c3c(nc4cc(-c5cccc(F)c5)nn24)CCCC3)CC1 | 6.02 µM
COc1ccc(OC)c(NC(=O)c2sc3ncnc(N4CCN(c5ccccn5)CC4)c3c2C)c1 | 16.2 µM (inactive)
COc1cccc(-c2cnc3c(NC=O)cc(-c4cccc(C(=O)N(C)C)c4)cn23)c1 | 12.6 µM (inactive)
COC(=O)c1cc(NC(=O)Nc2cc(OC)ccc2OC)cc(C(=O)OC)c1 | 22.3 µM (inactive)
COc1ccc(-c2nc(NC(=O)c3ccc(OCC(=O)N4CCOCC4)c(OC)c3)sc2C)cc1 | > 79 µM (inactive)

SMILES | IC50
CN(C)C(=O)/C=C\c1cn(-c2ccccc2)nc1-c1ccc2c(c1)OCCO2 | > 79 µM (inactive)
O=S(=O)(c1ccccc1)N1CCN(c2nc(-c3cccnc3)nc3ccccc23)CC1 | 4.54 µM
COc1cc2[nH]c(=O)n3nc(-c4ccccc4)nc3c2cc1OC | 11 µM (inactive)
Clc1ccccc1-c1nc(N/N=C/c2cccnc2)c2ccccc2n1 | 7.3 µM
COc1cc(/C=c2\s/c(=C(/C#N)C(=O)N3CCCC3)n(-c3ccccc3)c2=O)ccc1O | 3.2 µM
COc1ccc(-c2cc(NC(C)=O)c3ncc(-c4ccc(OC)c(OC)c4)n3c2)cc1OC | > 79 µM (inactive)
O=C(C(=O)N(Cc1ccccc1)Cc1ccccc1)c1c(-c2ccccc2)[nH]c2ccccc12 | 0.33 µM
COc1ccc(OC)c(Nc2nc(N)c([N+](=O)[O-])c(N3CCOCC3)n2)c1 | 11.8 µM (inactive)
O=C(COC(=O)c1c2c(nc3ccccc13)/C(=C/c1cccc([N+](=O)[O-])c1)CCC2)NC1CCS(=O)(=O)C1 (stereo unspecified) | 4.47 µM
Cc1ccc(-c2nnc(NCc3nc4ccccc4[nH]3)c3ccccc23)cc1S(=O)(=O)N1CCOCC1 | 4.11 µM
CC(C)(C)OC(=O)CNC(=O)c1[nH]cnc1C(=O)NCC(=O)OCc1ccccc1 | 0.747 µM
Cc1ccc(-c2csc(N3CCC[C@@H]3C(=O)NCCn3c(-c4ccncc4)nc4ccccc43)n2)cc1 | 2.83 µM
O=C(NCC(=O)N(Cc1ccccc1)C(C(=O)NC1CCCCC1)c1ccco1)c1ccco1 (stereo unspecified) | 38.7 µM (inactive)
COC(=O)c1ccc(C(C(=O)NCc2ccccc2)N(Cc2cccs2)C(=O)c2cnccn2)cc1 (stereo unspecified) | 5.53 µM
COc1ccc2c(c1OC)c(=O)n1c3ccc(OC(C)C(=O)NCCN4CCOCC4)cc3c3ccnc2c31 (stereo unspecified) | 13.7 µM (inactive)
CCOc1ccc(S(=O)(=O)N(C)CCO)cc1-c1nc2c(C(C)(C)C)nn(C)c2c(=O)[nH]1 | 5.22 µM
CC(=O)Nc1ccc(-c2csc(NC(=O)Nc3ccccc3)n2)cc1 | 40.6 µM (inactive)
CCOC(=O)c1nn(-c2cccc(OC)c2)c2nc(Nc3ccccc3)cc(=O)n12 | > 79 µM (inactive)
CCn1cc(C(=O)Nc2cccc(NC(C)=O)c2)c2cc(OC)c(OC)cc2c1=O | 16.1 µM (inactive)
CC(C)(C)OC(=O)N1CCC(NC(=O)c2nc[nH]c2C(=O)NCC(=O)OCc2ccccc2)CC1 | 1.08 µM
O=C(CN1CCN(c2ccccn2)CC1)Nc1ccc([N+](=O)[O-])cc1C(=O)Nc1ccccc1F | 7.08 µM
COc1ccc(-n2cc(-c3ccccc3)c3c(N4CCOCC4)ncnc32)cc1 | 4.02 µM
COc1cc2c(C#CCCCO)c(-c3ccsc3)oc(=O)c2cc1OC | 2.3 µM

SMILES | IC50
NS(=O)(=O)c1ccc(CCNc2ccn3nc(-c4ccc(OCCN5CCOCC5)cc4)cc3n2)cc1 | 7.72 µM
Cc1ccc(NC(=O)c2nc[nH]c2C(=O)NCCCCCCNC(=O)c2[nH]cnc2C(=O)Nc2ccc(C)cc2)cc1 | 3.93 µM
Cc1ccc(C(=O)Nc2cccc(C(F)(F)F)c2)cc1NC(=O)c1csc(-c2ccncc2)n1 | 5.51 µM
COc1cccc2cc(-c3cc(=O)oc4ccc(OCC(C)=O)cc34)oc12 | 3.21 µM
Cc1ccc2nc(-c3ccccc3)cc(C(=O)NNC(=O)c3csc(N4CCOCC4)n3)c2c1 | 15 µM (inactive)
Cc1cccc(NC(=O)c2nc[nH]c2C(=O)NCC(=O)OCc2ccccc2)c1 | 3.54 µM
CCOc1ccc(C(C(=O)NC2CCCC2)N(C(=O)c2snc(C(N)=O)c2N)c2cccc(O)c2)cc1 (stereo unspecified) | 3.28 µM
CCN(CC)C(=O)c1ccc(-c2nnc(Nc3ccc(O)cc3)c3ccccc23)cc1 | 17.6 µM (inactive)
O=C(Nc1cccc2cccnc12)c1ccc2sc([C@H]3C[C@H](O)[C@@H](CO)O3)nc2c1 | 4.33 µM
Cc1ncc(CO)c2cc(C(=O)Nc3ccccc3Cl)c(=Nc3cccc(C(N)=O)c3)oc12 | 0.51 µM
O=C(N/N=C\c1ccccn1)c1cccc(C(=O)N/N=C\c2ccccn2)n1 | 2.07 µM
COC(=O)c1ccccc1NC(=O)c1nc2nc(C)cc(C)n2n1 | 31.2 µM (inactive)
CC(=O)Nc1ccc(S(=O)(=O)N(Cc2ccco2)Cc2cc3ccccc3[nH]c2=O)cc1 | > 79 µM (inactive)
O=C(Nc1cccc(Cl)c1)c1nc[nH]c1C(=O)NCCCNC(=O)c1[nH]cnc1C(=O)Nc1cccc(Cl)c1 | 1.36 µM
COc1cccc(/C=N/Nc2nc3ccccc3n3cnnc23)c1 | > 79 µM (inactive)
S=C(Nc1ccc(N2CCOCC2)cc1)Nc1ccc2nc(-c3ccco3)c(-c3ccco3)nc2c1 | 10.7 µM (inactive)
O=C(CCCn1c(SCC(=O)c2ccc(O)c(O)c2)nc2ccccc2c1=O)NCC1CCCO1 (stereo unspecified) | 21.7 µM (inactive)
COc1cc(-c2cc3nc(NCCc4ccc(S(N)(=O)=O)cc4)ccn3n2)cc(OC)c1OC | 12.1 µM (inactive)
CCOC(=O)C1=C(C)Nc2ccccc2N=C1NC(=O)c1oc2ccccc2c1COC | 2.89 µM
COCCn1cnc2c(c1=O)c1nc3ccccc3nc1n2/N=C/c1cccc(OC)c1 | 13.6 µM (inactive)
CN(C)S(=O)(=O)n1cc(/C=C(\NC(=O)c2ccccc2F)C(=O)NCCN2CCOCC2)c2ccccc21 | 30.8 µM (inactive)
COc1ccc(NC(=O)c2cc3c(=O)n(C)c4ccccc4c3n2C)cc1OC | 3.23 µM
